ChEMBL document CHEMBL1131776, “Potent, elective human beta3 adrenergic receptor agonists containing a substituted indoline-5-sulfonamide pharmacophore” (Bioorg Med Chem Lett, 1999)

Assays:
[1] = target: Beta-2 adrenergic receptor (Homo sapiens, UniProt P07550); assay: biochemical
Description: In vitro binding affinity towards cloned human beta-2 adrenergic receptor using [125I]iodocyanopindolol as radioligand to stimulate increase in cAMP in CHO cells

[2] = target: T1, Beta-3 adrenergic receptor (Homo sapiens, UniProt P13945); assay: In vitro agonistic activity against cloned human beta-3 adrenergic receptor […] increase in cAMP in CHO cells; type: functional, cell-based
Target sequence in this assay (P13945 whole entry): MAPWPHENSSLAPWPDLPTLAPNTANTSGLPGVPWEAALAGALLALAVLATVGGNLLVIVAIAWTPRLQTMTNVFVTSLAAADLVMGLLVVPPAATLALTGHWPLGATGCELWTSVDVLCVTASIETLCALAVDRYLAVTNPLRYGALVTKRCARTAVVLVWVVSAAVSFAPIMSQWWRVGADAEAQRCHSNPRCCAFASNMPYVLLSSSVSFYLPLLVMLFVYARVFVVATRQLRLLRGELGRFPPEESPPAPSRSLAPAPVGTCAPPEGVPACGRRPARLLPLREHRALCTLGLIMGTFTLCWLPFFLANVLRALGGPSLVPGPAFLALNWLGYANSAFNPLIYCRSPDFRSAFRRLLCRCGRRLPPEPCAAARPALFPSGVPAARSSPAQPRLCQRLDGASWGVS

[3] = target: Beta-1 adrenergic receptor (Homo sapiens, UniProt P08588); assay: biochemical
Description: In vitro binding affinity towards cloned human beta-1 adrenergic receptor using [125I]iodocyanopindolol as radioligand to stimulate increase in cAMP in CHO cells

[4] = target: T1, Beta-3 adrenergic receptor; assay: Adenylyl cyclase activation as percent maximal stimulation with isoproterenol at 100 nM; type: functional
Target sequence in this assay (P13945 whole entry, looked up): as the sequence (P13945 whole entry) above

Chain of Beta-2 adrenergic receptor (P07550 whole entry): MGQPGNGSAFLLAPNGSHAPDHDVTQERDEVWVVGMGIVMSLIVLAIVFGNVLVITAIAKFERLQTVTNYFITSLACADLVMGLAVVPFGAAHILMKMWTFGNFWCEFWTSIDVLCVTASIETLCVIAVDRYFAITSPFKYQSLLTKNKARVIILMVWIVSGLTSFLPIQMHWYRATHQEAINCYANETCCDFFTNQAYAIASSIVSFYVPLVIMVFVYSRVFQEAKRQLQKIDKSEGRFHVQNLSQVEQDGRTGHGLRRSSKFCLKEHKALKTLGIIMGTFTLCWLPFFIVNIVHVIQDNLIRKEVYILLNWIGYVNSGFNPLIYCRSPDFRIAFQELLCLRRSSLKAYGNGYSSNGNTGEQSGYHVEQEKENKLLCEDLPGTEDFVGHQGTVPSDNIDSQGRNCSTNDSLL
Chain of Beta-1 adrenergic receptor (P08588 whole entry): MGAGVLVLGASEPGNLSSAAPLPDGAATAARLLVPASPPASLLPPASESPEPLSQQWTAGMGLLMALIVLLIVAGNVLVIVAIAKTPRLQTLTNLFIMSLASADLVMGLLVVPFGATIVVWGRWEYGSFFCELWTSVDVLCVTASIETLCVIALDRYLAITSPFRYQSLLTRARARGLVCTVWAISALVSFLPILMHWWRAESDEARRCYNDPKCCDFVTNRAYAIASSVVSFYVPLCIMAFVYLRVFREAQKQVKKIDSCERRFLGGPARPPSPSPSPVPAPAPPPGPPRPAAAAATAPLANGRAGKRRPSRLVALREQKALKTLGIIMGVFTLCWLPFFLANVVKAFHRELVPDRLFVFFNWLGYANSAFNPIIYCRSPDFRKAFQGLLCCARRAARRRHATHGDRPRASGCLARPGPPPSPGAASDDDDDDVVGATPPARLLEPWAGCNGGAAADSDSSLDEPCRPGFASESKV

Row | Compound | IC50 [1] | EC50 [2] | IC50 [3] | Activation [4]
1 | CCCCCCN(C)C(=O)N1CCc2cc(S(=O)(=O)Nc3ccccc3)ccc21 | 6500 nM | 47 nM | 10000 nM | –
2 | O=S(=O)(Nc1ccccc1)c1ccc2c(c1)CCN2c1nc(CCCC2CCCC2)cs1 | 900 nM | 3.2 nM | 4000 nM | –
3 | O=S(=O)(Nc1ccccc1)c1ccc2c(c1)CCN2c1cccc(CCCC2CCCC2)c1 | 7500 nM | 5 nM | 4000 nM | –
4 | CCCCCCCCc1cccc(N2CCc3cc(S(=O)(=O)Nc4ccccc4)ccc32)c1 | 1500 nM | 1.3 nM | 2500 nM | –
5 | O=S(=O)(Nc1ccccc1)c1ccc2c(c1)CCN2c1noc(CCCC2CCCC2)n1 | 42 nM | – | 330 nM | 20%
6 | CNC(=O)N1CCc2cc(S(=O)(=O)Nc3ccccc3)ccc21 | 7300 nM | 55 nM | 100000 nM | –
7 | CN(CCc1ccccc1)C(=O)N1CCc2cc(S(=O)(=O)Nc3ccccc3)ccc21 | 2500 nM | 55 nM | 10000 nM | –
8 | CCCCCCNC(=O)N1CCc2cc(S(=O)(=O)Nc3ccccc3)ccc21 | 36000 nM | 6.9 nM | 40000 nM | –
9 | O=S(=O)(Nc1ccc(CCNC[C@H](O)COc2ccc(O)cc2)cc1)c1ccc2c(c1)CCN2 | – | 0.65 nM | – | –
10 | CN(C)C(=O)N1CCc2cc(S(=O)(=O)Nc3ccccc3)ccc21 | 7000 nM | – | 9000 nM | 8%
11 | CCCCCCc1csc(N2CCc3cc(S(=O)(=O)Nc4ccccc4)ccc32)n1 | 510 nM | 0.9 nM | 1400 nM | –
12 | CCCCCCCCNC(=O)N1CCc2cc(S(=O)(=O)Nc3ccccc3)ccc21 | 630 nM | 0.73 nM | 1000 nM | –
13 | CCCCCCCCc1csc(Nc2ccc(S(=O)(=O)Nc3ccccc3)cc2)n1 | 340 nM | 0.8 nM | 650 nM | –
14 | CCCCCCC(=O)N1CCc2cc(S(=O)(=O)Nc3ccccc3)ccc21 | 2000 nM | 88 nM | 10000 nM | –
15 | O=S(=O)(Nc1ccccc1)c1ccc2c(c1)CCN2c1cccc(CCCC2CCCC2)n1 | 450 nM | 1.7 nM | 3000 nM | –
16 | CCCCCCNC(=O)N(C)c1ccc(S(=O)(=O)Nc2ccc(CCNC[C@H](O)c3cccnc3)cc2)cc1 | 10000 nM | – | 10000 nM | 20%
17 | CCCCCCCCc1cccc(N2CCc3cc(S(=O)(=O)Nc4ccccc4)ccc32)n1 | 63 nM | 1 nM | 220 nM | –
18 | CN(C(=O)N1CCc2cc(S(=O)(=O)Nc3ccccc3)ccc21)C(C)(C)Cc1ccccc1 | 8000 nM | – | 3000 nM | 17%
19 | CCCCCCCCc1csc(N2CCc3cc(S(=O)(=O)Nc4ccccc4)ccc32)n1 | 1300 nM | 0.93 nM | 2600 nM | –
20 | CCCCCCCCc1ccnc(N2CCc3cc(S(=O)(=O)Nc4ccccc4)ccc32)n1 | 530 nM | 2.4 nM | 1000 nM | –

The remaining lines, values ahead:

Row | IC50 [1] | EC50 [2] | IC50 [3] | Activation [4] | Compound
21 | 240 nM | 1.6 nM | 1800 nM | – | CCCCCCc1ccc(N2CCc3cc(S(=O)(=O)Nc4ccccc4)ccc32)nc1
22 | 100 nM | 31 nM | 580 nM | – | CCCCCCCCc1nc(N2CCc3cc(S(=O)(=O)Nc4ccccc4)ccc32)no1
23 | 52 nM | 13 nM | 600 nM | – | CCCCCCc1nc(N2CCc3cc(S(=O)(=O)Nc4ccccc4)ccc32)no1
24 | 180 nM | 3.7 nM | 4200 nM | – | CCCCCCCCc1cnc(N2CCc3cc(S(=O)(=O)Nc4ccccc4)ccc32)o1
25 | 750 nM | 8.1 nM | 4000 nM | – | Cc1csc(N2CCc3cc(S(=O)(=O)Nc4ccccc4)ccc32)n1
26 | 460 nM | 1.8 nM | 700 nM | – | CCCCCCc1cccc(N2CCc3cc(S(=O)(=O)Nc4ccccc4)ccc32)c1
27 | 1000 nM | 7 nM | 1800 nM | – | CCCCCCCCC(=O)N1CCc2cc(S(=O)(=O)Nc3ccccc3)ccc21
28 | 440 nM | 5.5 nM | 1500 nM | – | CCCCCCCCc1csc(N(C)c2ccc(S(=O)(=O)Nc3ccccc3)cc2)n1
29 | 620 nM | 5.1 nM | 1400 nM | – | CCCCCCc1ccnc(N2CCc3cc(S(=O)(=O)Nc4ccccc4)ccc32)n1
30 | 1000 nM | 18 nM | 970 nM | – | CCCCCCCCN(C)C(=O)N1CCc2cc(S(=O)(=O)Nc3ccccc3)ccc21
31 | 140 nM | 1.2 nM | 900 nM | – | CCCCCCc1cccc(N2CCc3cc(S(=O)(=O)Nc4ccccc4)ccc32)n1
